Where two headings read alike, the source gives them in different places.
Experiments:
Type in all cases: in vivo
[1] = tested on: small brown planthopper; assay: whole plant or invertebrate; settings: Laodelphax striatellus, 72 h
Protocol: (§1) Rice seedlings grown in pots were subjected to soil drenching treatment with solutions of the inventive compounds at a predetermined concentration prepared to 10% acetone/water. Three days following treatment, ten second-instar small brown planthopper larvae were released onto each seedling. The treated seedlings and larvae were then held in an incubation chamber at 25° C. (16-hour period of light, 8-hour dark period). Three days after released, the numbers of live and dead insects were counted, and the mortality was calculated from the following formula. The test was carried out as two replications. Mortality (%)=[number of dead insects/(number of live insects+number of dead insects)]×100

[2] = tested on: brown rice planthopper having a low susceptibility to insecticides; design: key to Brown rice planthopper, Kumamoto low susceptibility (rice soil drenching), effect: mortality %, dead/(live+dead) ×100; settings: rice soil drenching, 0.05 mg/pot
Protocol: as §1, with “days after” for “days following”, “second-instar” for “second-instar small”, “brown rice” for “brown”, “larvae having a low susceptibility to insecticides” for “larvae”, “The” for “The treated”, “and insects” for “and larvae”
The pests used in this test were insects that had been raised indoors for successive generations over a long period of time (susceptible line), and insects that had been raised indoors for successive generations after being collected (I) in 2007 within Kumamoto Prefecture and (II) in 2005 within Fukuoka Prefecture (field-collected lines).

[3] = tested on: cotton aphid; assay: whole plant or invertebrate; settings: Aphis gossypii, foliar
Protocol: (§2) Leaf discs 2.0 cm in diameter were cut from cucumber plants grown in pots, and these were sprayed with solutions of the inventive compounds at a predetermined concentration prepared to 50% acetone/water (containing 0.05% Tween 20). The treated leaf discs were air dried, following which first-instar larvae were released onto the discs. The leaf discs and larvae were then held in an incubation chamber at 25° C. (16-hour period of light, 8-hour dark period). Three days after released, the numbers of live and dead insects were counted, and the mortality was calculated from the following formula. This was a two-replication test. Mortality (%)=[number of dead insects/(number of live insects+number of dead insects)]×100

[4] = tested on: diamondback moth; assay: whole plant or invertebrate; settings: Plutella xylostella, foliar
Protocol: as §2, with “5.0” for “2.0”, “cabbage” for “cucumber”, “second-instar” for “first-instar”

[5] = tested on: small brown planthopper; assay: whole plant or invertebrate; settings: Laodelphax striatellus, in Triticum aestivum, 96 h
Protocol: as §1, with “Wheat seedling roots 48 hours after sowing” for “Rice seedlings grown in pots”, “treated” for “subjected to soil drenching treatment”, “After allowing the roots to absorb the chemical for 72 hours,” for “Three days following treatment,”, “Four” for “Three”

[6] = tested on: rice leaf bug; assay: whole plant or invertebrate; settings: foliar, 72 h
Protocol: The treated seedlings were air-dried, then each was placed in a glass cylinder and two second-instar rice leaf bug larvae were released within the same glass cylinder. Following release of the insects, the tube was capped and held in an incubation chamber at 25° C. (16-hour period of light, 8-hour dark period). […] Three days after released, the numbers of live and dead insects were counted, and the mortality was calculated from the following formula. Mortality (%)=[number of dead insects/(number of live insects+number of dead insects)]×100

[7] = tested on: common cutworm; assay: whole plant or invertebrate; settings: foliar application, 500 ppm
Protocol: as §2, with “5.0” for “2.0”, “cabbage” for “cucumber”, “third-instar” for “first-instar”

[8] = tested on: western flower thrips; assay: whole plant or invertebrate; settings: Frankliniella occidentalis, foliar
Protocol: as §2, with “2.8” for “2.0”, “bean” for “cucumber”

[9] = rice soil drenching, 0.05 mg/pot (Table 13), read-out: Small brown planthopper (rice soil drenching), effect
[10] = rice soil drenching, 0.01 mg/pot (Table 13), read-out: Small brown planthopper (rice soil drenching), effect
[11] = soil, read-out: Small brown planthopper (rice soil drenching), effect
[12] = read-out: Insecticidal effects (mortality), diamondback moth second-instar larvae
[13] = read-out: Insecticidal effects (mortality), cotton aphid first-instar larvae
[14] = read-out: Insecticidal effects (mortality), western flower thrips first-instar larvae
[15] = read-out: Insecticidal effects (mortality), small brown planthopper second-instar larvae
[16] = soil, read-out: Insecticidal effects (mortality), small brown planthopper second-instar larvae

N#CN=c1ccccn1Cc1ccc(Cl)nc1 [Comparative Example 2, N-[1-((6-chloropyridin-3-yl)methyl)pyridin-2(1H)-ylidene]cyanamide, reference compound] showed a pest or weed control at 0.05 mg/pot [1, 9] of 20%.
With CC(=O)/N=c1\ccccn1Cc1ccc(Cl)nc1 [Comparative Example 3, N-[1-((6-chloropyridin-3-yl)methyl)pyridin-2(2H)-ylidene]acetamide, reference compound] the pest or weed control at 0.05 mg/pot [1, 9] was 10%.
With O=C(/C=C1\NCCN1Cc1ccc(Cl)nc1)C(F)(F)F [Comparative Example 4, 3-[1-((6-chloropyridin-3-yl)methyl)imidazolidin-2-ylidene]-1,1,1-trifluoropropan-2-one, reference compound] the pest or weed control at 0.01 mg/pot [1, 10] was 20%, the pest or weed control at 0.05 mg/pot [1, 9] was 100% and the “Brown rice planthopper, Kumamoto low susceptibility (rice soil drenching), effect” value (“Brown rice planthopper” below) [2] was 45.
For O=C(/C=C1\SCCN1Cc1ccc(Cl)nc1)C(F)(F)F [Comparative Example 5, 3-[3-((6-chloropyridin-3-yl)methyl)thiazolidin-2-ylidene]-1,1,1-trifluoropropan-2-one, reference compound], the pest or weed control at 0.01 mg/pot [1, 10] was 15%, the pest or weed control at 0.05 mg/pot [1, 9] was 95% and the “Brown rice planthopper” value [2] was 25.
With O=C(C(C(=O)C(F)(F)F)=C1NCCN1Cc1ccc(Cl)nc1)C(F)(F)F [Comparative Example 6, 3-[1-((6-chloropyridin-3-yl)methyl)imidazolidin-2-ylidene]-1,1,1,5,5,5-hexafluoropentan-2,4-dione, reference compound] the pest or weed control at 0.01 mg/pot [1, 11] was 20%, the pest or weed control at 0.05 mg/pot [1, 11] was 100% and the “Brown rice planthopper” value [2] was 25.
With O=C(/N=C1\NCCN1Cc1ccc(Cl)nc1)C(F)(F)F [Comparative Example 7, N-[1-((6-chloropyridin-3-yl)methyl)imidazolidin-2-ylidene]-2,2,2-trifluoroacetamide, reference compound] the pest or weed control at 0.01 mg/pot [1, 10] was 5%, the pest or weed control at 0.05 mg/pot [1, 9] was 63% and the “Brown rice planthopper” value [2] was 20.
In the case of O=C(/N=C1\SCCN1Cc1ccc(Cl)nc1)C(F)(F)F [Comparative Example 8, N-[3-((6-chloropyridin-3-yl)methyl)thiazolidin-2-ylidene]-2,2,2-trifluoroacetamide, reference compound], the pest or weed control at 0.05 mg/pot [1, 9] is reported as 20%.
Molecule N#CNCc1ccc(Cl)nc1 [Compound 1 in Patent Document 1, N-[(6-chloropyridin-3-yl)methyl]cyanamide, reference compound] has a mortality at 500 ppm ([3]; in Cucumis sativus, 72 h) of 65%.
In the case of O=C(N=c1ccccn1Cc1ccc(Cl)nc1)C(Cl)(Cl)Cl [Compound 235, 2,2,2-trichloro-N-[1-((6-chloropyridin-3-yl)methyl)pyridin-2(1H)-ylidene]acetamide], the mortality at 100 ppm ([4]; in Brassica oleracea, 72 h) is reported as ≥ 80%, the mortality at 500 ppm ([4]; in Brassica oleracea, 72 h) is reported as ≥ 80% and the mortality at 20 ppm ([3]; in Cucumis sativus, 72 h) is reported as ≥ 80%. The mortality at 100 ppm ([3]; in Cucumis sativus, 72 h) was ≥ 80%, the mortality at 500 ppm ([3]; in Cucumis sativus, 72 h) was ≥ 80% and the mortality at 20 µg/seedling [5] was ≥ 80%.
With O=C(CCl)N=c1ccccn1Cc1ccc(Cl)nc1 [Compound 236, 2-chloro-N-[1-((6-chloropyridin-3-yl)methyl)pyridin-2(1H)-ylidene]acetamide] the mortality at 20 ppm ([3]; in Cucumis sativus, 72 h) was ≥ 80%, the mortality at 100 ppm ([3]; in Cucumis sativus, 72 h) was ≥ 80% and the mortality at 50 ppm [6] was ≥ 80%.
CC(c1ccc(Cl)nc1)n1ccccc1=NC(=O)C(F)(F)F (centres unmarked) [Compound 237, N-[1-(1-(6-chloropyridin-3-yl)ethyl)pyridin-2(1H)-ylidene]-2,2,2-trifluoroacetamide] showed a mortality at 20 ppm [4, 12] of 100%, a mortality at 100 ppm [4, 12] of 100% and a mortality at 500 ppm [4, 12] of 100%. For the same molecule, the mortality at 100 ppm ([4]; in Brassica oleracea, 72 h) was ≥ 80%, the mortality at 500 ppm ([4]; in Brassica oleracea, 72 h) was ≥ 80% and the “Insecticidal effects (mortality), common cutworm third-instar larvae” value [7] was 33. The mortality at 20 ppm [3, 13] was 85%, the mortality at 100 ppm [3, 13] was 100% and the mortality at 500 ppm [3, 13] was 100%. For the same molecule, the mortality at 20 ppm ([3]; in Cucumis sativus, 72 h) was ≥ 80%, the mortality at 100 ppm ([3]; in Cucumis sativus, 72 h) was ≥ 80% and the mortality at 500 ppm ([3]; in Cucumis sativus, 72 h) was ≥ 80%. The mortality at 500 ppm ([8]; 72 h) was ≥ 80%, the mortality at 500 ppm [8, 14] was 90% and the mortality at 20 µg/seedling [5] was ≥ 80%. The mortality at 0.5 mg/seedling [5, 15] was 50%, the mortality at 2 mg/seedling [5, 15] was 100% and the mortality at 20 mg/seedling [5, 15] was 100%. The pest or weed control at 0.01 mg/pot [1, 10] was 75%, the pest or weed control at 0.05 mg/pot [1, 9] was 100% and the mortality at 0.05 mg/seedling ([1]; soil) was ≥ 80%. It also gave a mortality at 0.01 mg/pot [1, 16] of 75% and a mortality at 0.05 mg/pot [1, 16] of 100%.
For O=C(N=c1ccccn1Cc1ccc(Cl)nc1)C(F)F [Compound 238, N-[1-((6-chloropyridin-3-yl)methyl)pyridin-2(1H)-ylidene]-2,2-difluoroacetamide], the mortality at 20 ppm [4, 12] was 60%, the mortality at 100 ppm [4, 12] was 100% and the mortality at 100 ppm ([4]; in Brassica oleracea, 72 h) was ≥ 80%. The “Insecticidal effects (mortality), common cutworm third-instar larvae” value [7] was 0, the mortality at 1.25 ppm [3, 13] was 100% and the mortality at 5 ppm [3, 13] was 100%. The mortality at 20 ppm [3, 13] was 100%, the mortality at 100 ppm [3, 13] was 100% and the mortality at 20 ppm ([3]; in Cucumis sativus, 72 h) was ≥ 80%. The mortality at 100 ppm ([3]; in Cucumis sativus, 72 h) was ≥ 80%, the mortality at 100 ppm ([8]; 72 h) was ≥ 80% and the mortality at 100 ppm [8, 14] was 95%. For the same molecule, the mortality at 20 µg/seedling [5] was ≥ 80%, the mortality at 0.063 mg/seedling [5, 15] was 25% and the mortality at 0.25 mg/seedling [5, 15] was 100%. The mortality at 0.5 mg/seedling [5, 15] was 100%, the mortality at 2 mg/seedling [5, 15] was 100% and the mortality at 20 mg/seedling [5, 15] was 100%. For the same molecule, the pest or weed control at 0.005 mg/pot ([1]; rice soil drenching, 0.005 mg/pot (Table 13), read-out: Small brown planthopper (rice soil drenching), effect) was 33%, the pest or weed control at 0.01 mg/pot [1, 10] was 100% and the pest or weed control at 0.05 mg/pot [1, 9] was 100%. The mortality at 0.05 mg/seedling ([1]; soil) was ≥ 80%, the mortality at 0.005 mg/pot [1, 16] was 33% and the mortality at 0.01 mg/pot [1, 16] was 100%. It also gave a mortality at 0.05 mg/pot [1, 16] of 100%.
O=C(N=c1ccccn1Cc1ccc(Cl)nc1)C(Br)Br [Compound 241, 2,2-dibromo-N-[1-((6-chloropyridin-3-yl)methyl)pyridin-2(1H)-ylidene]-acetamide] was tested, and the mortality at 500 ppm ([4]; in Brassica oleracea, 72 h) was ≥ 80%, the mortality at 20 ppm ([3]; in Cucumis sativus, 72 h) was ≥ 80% and the mortality at 100 ppm ([3]; in Cucumis sativus, 72 h) was ≥ 80%. The mortality at 20 µg/seedling [5] was ≥ 80%.

From US10085449B2, “N-[1-((6-chloropyridin-3-yl)methyl)pyridin-2(1H)-ylidene]-2,2,2- trifluoroacetamide for control of agricultural/horticultural pests” (priority 2010, dated 2018)
